Experimental data published in PubChem BioAssay AID720588 (Broad Institute, 2013).
Calls of active or inactive are those of the source.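 The calls were made as follows: active = fitted curve falls past a set limit of signal loss at no more than twice the top dose; inconclusive = flat fit between 30 and 70% signal loss, or poor fit; inactive = signal rise, flat within 30%, or crossing too high.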

Test: HEK293T cell cytotoxicity, dose response, cytotoxicity control, CellTiter-Glo luminescence, cherry-pick, set 3 (AID 720588)
Conditions: HEK293T viability, CellTiter-Glo ATP luminescence, 72 h

Structure (SMILES)	activity change, negative = cytotoxicity (at 26 µM (top of the series))	activity change, negative = cytotoxicity (at 23.5 µM (top of the series))
C[C@@H]1CN([C@H](C)CO)C(=O)CCCn2nncc2CO[C@H]1CN(C)Cc1ccc(Oc2ccccc2)cc1	-3.49% (inactive)	
Cc1ccc(C(C(=O)NCc2ccco2)N(C(=O)CNC(=O)c2cccs2)c2c(C)cc(C)cc2C)cc1 (stereo not drawn)	-19.4% (inactive)	
COc1ccc(/C=C2\SC(=S)N(CCCC(=O)NNC(=O)c3ccccc3O)C2=O)cc1	13.3% (inactive)	
O=c1[nH]c(=O)n([C@H]2C[C@H](O)[C@@H](CO)O2)cc1C(F)(F)F	-10.4% (inactive)	
C[C@@H]1CN([C@H](C)CO)C(=O)c2cc(NC(=O)CCCCCC(=O)Nc3ccccc3N)ccc2O[C@@H]1CN(C)Cc1ccc(Cl)c(Cl)c1	-5.39% (inactive)	
Cc1cc(C(=O)CN2C(=O)c3ccccc3S2(=O)=O)c(C)n1C(C)C	15.7% (inactive)	
N#C[C@H]1[C@H](c2ccc(-c3ccccc3F)cc2)[C@@H](CO)N1C(=O)c1ccccn1	-19.7% (inactive)	
C/C(=N\OCc1cccc(C(=O)O)c1)c1ccc(Cl)cc1	-6.62% (inactive)	
CCC1=Nc2cc(C(=O)NCC3CCCO3)ccc2Sc2ccc(Br)cc21 (stereo not drawn)	-27.1% (inactive)	
Nc1ncn([C@@H]2O[C@H](CO)[C@@H](O)[C@H]2O)c(=O)n1	4.13% (inactive)	
OCCN1CCN(C(=S)c2ccc(-c3ccccc3)cc2)CC1	-3.37% (inactive)	
N#C[C@H]1[C@H](c2ccc(-c3ccccc3F)cc2)[C@@H](CO)N1C(=O)Cc1ccccc1	-28.3% (inactive)	
Cc1ccc(-c2ccc3c(c2)O[C@@H](CN(C)C(=O)Nc2ccc(F)cc2)[C@H](C)CN([C@@H](C)CO)S3(=O)=O)cc1	48.8% (inactive)	
Nc1ccc(-c2cc3ccccc3oc2=O)cc1	-22% (inactive)	
O=C1CCCC2=C1C(c1ccccn1)Nc1ccc(C(=O)c3ccccc3)cc1N2 (stereo not drawn)	7.12% (inactive)	
N#C[C@@H]1[C@H](c2ccc(C#Cc3cccc(F)c3)cc2)[C@@H](CO)N1C(=O)C1CCCC1	38% (inactive)	
COC(=O)C[C@@H]1CC[C@@H]2[C@@H](COc3ccc(NC(=O)Nc4cccc(Cl)c4)cc3C(=O)N2C)O1		4.77% (inactive)
COC(=O)c1cccc(NC(=O)NC(=O)c2ccccc2Cl)c1	-19% (inactive)	
C=CCn1c(O)c(N=Nc2ccccc2)c2ccccc21	11.3% (inactive)	

Structure (SMILES)	activity change, negative = cytotoxicity (at 26 µM (top of the series))	activity change, negative = cytotoxicity (at 23.5 µM (top of the series))
COC(=O)C[C@@H]1CC[C@@H]2[C@H](COc3ccc(NC(=O)c4ccccc4)cc3C(=O)N2C)O1	41.2% (inactive)	
COC(=O)C[C@@H]1CC[C@@H]2[C@H](COc3ccc(NC(=O)c4ccc(C(F)(F)F)cc4)cc3C(=O)N2C)O1	-2.65% (inactive)	
COC(=O)C[C@@H]1CC[C@@H]2[C@H](COc3ccc(NC(=O)Nc4ccc(C#N)cc4)cc3C(=O)N2C)O1	46.8% (inactive)	
CCc1ccc(/C=C2\SC(=S)N(CCCC(=O)NC3=NCCS3)C2=O)cc1	-17.5% (inactive)	
COc1ccc(C/C(N)=N/OC(C)=O)cc1OC	-1.12% (inactive)	
C(=N\Nc1ccc2ccccc2n1)/c1ccc2c(c1)OCO2	-17.5% (inactive)	
COc1ccc(CCC(C)NCC2CCCCC2)cc1 (stereo not drawn)	4.78% (inactive)	
O=C(C1CC1)N1C[C@@H]2N[C@H](C1)C2c1ccc(/C=C/c2ccccc2)cc1 (stereo partly drawn)	-31.7% (inactive)	
C[C@@H]1CN([C@@H](C)CO)S(=O)(=O)c2ccc(C#CCN(C)C)cc2O[C@@H]1CN(C)Cc1ccncc1	52.2% (inactive)	
O=C1Nc2ccccc2C1=Nc1ccccc1-c1ccccc1	-21.1% (inactive)	
N/C(Cc1nc(-c2ccc(F)cc2)cs1)=N\O	-17.4% (inactive)	
Cc1cc(C)cc(C(=O)NC(=S)Nc2ccc(Cc3ccncc3)cc2)c1	-25.9% (inactive)	
C[C@@H]1CN([C@@H](C)CO)C(=O)c2cccc(NS(=O)(=O)c3ccc(F)cc3)c2O[C@@H]1CN(C)Cc1ccc(C(=O)Nc2ccccc2N)cc1	-33.3% (inactive)	
CCn1c(/C=N/NC(=O)c2ccc(OC)cc2)nc2ccccc21	-10.9% (inactive)	
O=C(N/N=C/c1cccs1)c1n[nH]c2c1CCCC2	-10.2% (inactive)	
CN(C)c1ccc2c(c1)[C@@H]1C[C@@H](CC(=O)NCc3ccc(Oc4ccccc4)cc3)O[C@H](CO)[C@@H]1O2	-15.8% (inactive)	
COc1ccc(Cl)cc1S(=O)(=O)Nc1ccc2c(c1)n(C)c(=O)n2C	-13.3% (inactive)	
CCCNC(=O)N1[C@H](C#N)[C@H](c2ccc(C#Cc3cccc(F)c3)cc2)[C@H]1CO		-0.501% (inactive)
Cc1ccc2oc(/N=C(\N)NC(=O)C(C)(C)C)nc2c1	-11% (inactive)	
